Assays:
[1] = cited from earlier work
A549 cells = assay: MTS cytotoxicity assay (CellTiter 96); format: cell-based; details: ~24 hours incubation
Description: (§1) High throughput cell viability assays were completed using standard procedures. Cytotoxicity of polymers was determined by the CellTiter 96® Aqueous Cell Proliferation Assay (Promega). A549 and HUVEC cells were cultured and incubated with polymers for ˜24 hours. Next, the media was removed and replaced with a mixture of 100 μL fresh culture media and 20 μL MTS reagent solution and cells were incubated for 3 hours at 37° C. in a 5% CO2 incubator. The absorbance of each well was then measured at 490 nm using a microtiter plate reader (SpectraMax, M25, Molecular Devices Corp.) to determine relative cell viability.

HUVEC cells = assay: MTS cytotoxicity assay (CellTiter 96); format: cell-based; details: ~24 hours incubation
Description: as §1

SMILES	relative iron binding constant ([1]; Fe(III))	Log K ([1]; iron)	toxic effect on A549 cells (A549 cells)	toxic effect on HUVEC cells (HUVEC cells)
O=C(N[C@H]1COC(=O)[C@@H](NC(=O)c2cccc(O)c2O)COC(=O)[C@@H](NC(=O)c2cccc(O)c2O)COC1=O)c1cccc(O)c1O [Enterobactin]	35.5	52		
CC(=O)N(O)CCCCCNC(=O)CCC(=O)N(O)CCCCCNC(=O)CCC(=O)N(O)CCCCCN [DFO, desferoxamine]			no toxic effect	considerably toxic even at concentration as low as 10 μg/mL

From US10039836B2, “Polyamine-dihydroxybenzoic acid conjugate hydrogels as iron chelators” (THE UNIVERSITY OF KANSAS, priority 2010, dated 2018)
